For 22 molecules, Ki, EC50 and Ratio Ki results are on record in ChEMBL document CHEMBL3797035 (Bioorg Med Chem, 2016).

Experiment [1] is described as follows: Displacement of [3H]prazosine from alpha-1 receptor in porcine cortical membranes. In kind it is cell membranes, Sus scrofa. (In general: Displacement assays read how much labelled ligand stays bound in the presence of the test substance.)
A short description of experiment [2]: Displacement of [3H]RX821002 from alpha-2 receptor in porcine cortical membranes. In kind it is cell membranes, Sus scrofa.
Experiment [3] concerns the target T1, D(2) dopamine receptor (Homo sapiens, UniProt P14416). The experiment is described as follows: Displacement of [3H]spiperone from human D2L receptor expressed in CHO cells. The format is cell-based.
A further experiment concerns the target D(3) dopamine receptor (Homo sapiens, UniProt P35462). The experiment is described as follows: Displacement of [3H]spiperone from human D3 receptor expressed in CHO cells. In kind it is cell-based.
Experiment [4] has as its target T1, D(2) dopamine receptor. The experiment is described as follows: Displacement of [3H]spiperone from human D2S receptor expressed in CHO cells. The format is cell-based.
Experiment [5] deals with T2, Beta-2 adrenergic receptor (Homo sapiens, UniProt P07550). The experiment is described as follows: Agonist activity at human beta2 receptor expressed in HEK293 cells cotransfected with Gqs5 protein assessed as [3H]IP3 accumulation after 120 mins by scintillation counting assay in presence of myo-[3H]-inositol. In kind it is functional, cell-based.
The target of experiment [6] is T1, D(2) dopamine receptor. The experiment is described as follows: Agonist activity at human D2S receptor expressed in HEK293 cells cotransfected with Gqi5 protein assessed as [3H]IP3 accumulation after 120 mins by scintillation counting assay in presence of myo-[3H]-inositol. The format is functional, cell-based.
Experiment [7] has as its target Beta-1 adrenergic receptor (Mus musculus, UniProt P34971). The experiment is described as follows: Displacement of [3H]CGP12177 from mouse beta1 receptor expressed in HEK293 cells. In kind it is cell-based.
Experiment [8] concerns the target T2, Beta-2 adrenergic receptor. Description: Displacement of [3H]CGP12177 from human beta2 receptor expressed in CHO cells. In kind it is cell-based.
The target of the next experiment is T3, D(4) dopamine receptor (Homo sapiens, UniProt P21917).
T3 sequence (P21917 whole entry): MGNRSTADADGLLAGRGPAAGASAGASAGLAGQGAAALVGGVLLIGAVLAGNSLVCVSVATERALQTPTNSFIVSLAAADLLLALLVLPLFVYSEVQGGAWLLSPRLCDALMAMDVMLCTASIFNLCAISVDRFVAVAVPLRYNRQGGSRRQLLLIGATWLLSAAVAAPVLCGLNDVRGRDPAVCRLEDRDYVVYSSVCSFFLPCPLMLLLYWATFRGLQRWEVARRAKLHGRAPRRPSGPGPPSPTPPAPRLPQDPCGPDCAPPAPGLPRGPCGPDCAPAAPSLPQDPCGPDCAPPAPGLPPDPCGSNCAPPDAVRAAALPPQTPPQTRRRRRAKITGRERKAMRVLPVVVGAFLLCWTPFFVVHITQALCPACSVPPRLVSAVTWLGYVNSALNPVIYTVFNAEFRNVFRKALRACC
The experiment is described as follows: Displacement of [3H]spiperone from human D4.4 receptor expressed in CHO cells. The format is cell-based.

Another experiment deals with D(1A) dopamine receptor (Homo sapiens, UniProt P21728). The experiment is described as follows: Displacement of [3H]SCH23390 from human D1 receptor expressed in HEK293 cells. In kind it is cell-based.
Experiment [9] concerns the target T2, Beta-2 adrenergic receptor. Description: Agonist activity at PK-tagged beta2 receptor (unknown origin) transfected in HEK293 cells after 90 mins by beta-arrestin assay. The format is cell-based.
The species named for another experiment is Homo sapiens. The experiment is described as follows: Selectivity index, ratio of Ki for human D2S receptor to Ki for human beta2 receptor.
The target in experiment [10] is T1, D(2) dopamine receptor. The experiment is described as follows: Agonist activity at ARMS2-PK-tagged D2S receptor (unknown origin) transfected in HEK293 cells after 5 hrs by beta-arrestin assay. The format is cell-based.

D(1A) dopamine receptor, sequence (P21728 whole entry): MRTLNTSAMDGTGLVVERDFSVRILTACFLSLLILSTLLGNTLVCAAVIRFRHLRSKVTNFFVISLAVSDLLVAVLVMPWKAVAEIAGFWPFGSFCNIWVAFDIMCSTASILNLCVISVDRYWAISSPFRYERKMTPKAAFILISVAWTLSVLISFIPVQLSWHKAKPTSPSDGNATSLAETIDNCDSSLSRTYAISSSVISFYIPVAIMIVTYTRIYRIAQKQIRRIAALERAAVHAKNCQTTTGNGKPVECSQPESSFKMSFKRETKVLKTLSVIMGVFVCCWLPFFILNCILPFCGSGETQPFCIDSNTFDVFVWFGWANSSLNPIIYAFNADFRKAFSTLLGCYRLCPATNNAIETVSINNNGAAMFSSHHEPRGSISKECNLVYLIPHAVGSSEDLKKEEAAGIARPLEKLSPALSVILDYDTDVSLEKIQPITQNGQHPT
Beta-1 adrenergic receptor, sequence (P34971 whole entry): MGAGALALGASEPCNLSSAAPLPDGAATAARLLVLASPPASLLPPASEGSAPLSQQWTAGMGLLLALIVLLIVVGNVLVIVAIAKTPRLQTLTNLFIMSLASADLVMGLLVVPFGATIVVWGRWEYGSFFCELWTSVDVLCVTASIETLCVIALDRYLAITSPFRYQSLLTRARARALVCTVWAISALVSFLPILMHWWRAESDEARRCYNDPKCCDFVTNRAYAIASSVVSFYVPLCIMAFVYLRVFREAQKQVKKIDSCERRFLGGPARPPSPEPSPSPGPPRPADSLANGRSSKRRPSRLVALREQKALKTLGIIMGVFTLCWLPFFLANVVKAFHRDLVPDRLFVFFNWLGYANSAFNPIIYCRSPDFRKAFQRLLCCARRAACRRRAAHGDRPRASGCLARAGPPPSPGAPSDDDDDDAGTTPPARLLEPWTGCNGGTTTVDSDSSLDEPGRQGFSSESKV
T2 sequence (P07550 whole entry): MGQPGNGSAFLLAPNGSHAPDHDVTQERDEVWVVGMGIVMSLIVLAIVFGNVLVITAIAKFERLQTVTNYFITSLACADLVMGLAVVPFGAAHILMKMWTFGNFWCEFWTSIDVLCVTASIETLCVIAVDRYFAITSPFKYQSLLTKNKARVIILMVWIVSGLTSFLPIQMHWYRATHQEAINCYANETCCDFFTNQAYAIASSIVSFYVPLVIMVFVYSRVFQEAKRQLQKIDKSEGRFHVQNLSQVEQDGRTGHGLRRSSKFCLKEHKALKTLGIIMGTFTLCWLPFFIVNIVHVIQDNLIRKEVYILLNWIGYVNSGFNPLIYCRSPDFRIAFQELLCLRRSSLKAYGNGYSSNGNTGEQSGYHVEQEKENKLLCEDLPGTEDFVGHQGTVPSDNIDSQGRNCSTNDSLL
D(3) dopamine receptor, sequence (P35462 whole entry): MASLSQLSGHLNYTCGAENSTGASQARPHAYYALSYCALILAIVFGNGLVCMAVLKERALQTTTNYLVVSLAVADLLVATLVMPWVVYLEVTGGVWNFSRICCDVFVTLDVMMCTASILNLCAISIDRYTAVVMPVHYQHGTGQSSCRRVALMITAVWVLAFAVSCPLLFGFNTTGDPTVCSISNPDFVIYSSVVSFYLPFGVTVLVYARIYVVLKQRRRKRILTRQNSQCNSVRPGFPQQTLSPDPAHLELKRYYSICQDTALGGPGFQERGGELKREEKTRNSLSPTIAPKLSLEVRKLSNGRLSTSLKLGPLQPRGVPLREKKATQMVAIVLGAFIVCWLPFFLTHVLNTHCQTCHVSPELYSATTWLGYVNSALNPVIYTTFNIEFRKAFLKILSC
T1 sequence (P14416 whole entry): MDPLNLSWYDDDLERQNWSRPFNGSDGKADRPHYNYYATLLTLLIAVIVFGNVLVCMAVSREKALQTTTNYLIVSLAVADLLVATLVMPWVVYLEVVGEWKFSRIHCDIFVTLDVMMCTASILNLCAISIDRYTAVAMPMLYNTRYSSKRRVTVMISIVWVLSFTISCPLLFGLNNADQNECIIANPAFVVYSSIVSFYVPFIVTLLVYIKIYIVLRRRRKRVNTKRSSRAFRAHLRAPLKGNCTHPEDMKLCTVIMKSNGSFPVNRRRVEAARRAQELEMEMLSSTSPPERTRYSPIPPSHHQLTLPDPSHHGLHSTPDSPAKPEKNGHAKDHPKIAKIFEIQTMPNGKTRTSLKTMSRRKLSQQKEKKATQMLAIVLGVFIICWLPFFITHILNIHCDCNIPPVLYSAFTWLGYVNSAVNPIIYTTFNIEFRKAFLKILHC

As a reminder, the Ki is a measure of affinity in units of concentration, obtained from inhibition or displacement. The low end stands for tighter binding, the high end for weaker binding. As a reminder, the EC50 is the concentration needed to bring the measured effect to its halfway point. Consider `COc1cc(CCNC[C@H](O)c2ccc(O)c(O)c2)ccc1OCCCc1ccccc1`, for which the Ki was found to be 16 nM in experiment [1]; 1200 nM in experiment [2]; 110 nM at D(2) dopamine receptor [3]; 62 nM at D(3) dopamine receptor; 67 nM at D(2) dopamine receptor [4]; 85 nM in experiment [7]. The Ki in experiment [8] came out at 18 nM; at D(4) dopamine receptor, 140 nM; at D(1A) dopamine receptor, 430 nM. Also, the EC50 in [5] stood at 5100 nM; at D(2) dopamine receptor [6] it was 200 nM; in experiment [9] it was 260 nM.
Molecule `CCCN[C@H]1CCc2nc(N)sc2C1` [PRAMIPEXOLE] displayed a Ki in experiment [8] of 100000 nM.
Regarding `COc1ccccc1OCCNC[C@@H](O)c1ccc(O)c(O)c1`, the Ki in [1] was 19 nM; in experiment [2], 760 nM; on D(2) dopamine receptor [3], 350 nM; on D(3) dopamine receptor, 610 nM; at D(2) dopamine receptor [4], 200 nM; in experiment [7] it was 1500 nM. Moreover, the Ki in experiment [8] stood at 850 nM; at D(4) dopamine receptor, 240 nM; at D(1A) dopamine receptor, 430 nM. In addition, the EC50 turned out to be 1400 nM in experiment [5] and 2200 nM in experiment [9].
In the case of `OCc1cc(C(O)CNCCCCCCOCCCCc2ccccc2)ccc1O` (centres undefined) [SALMETEROL], at D(2) dopamine receptor [4], the Ki amounted to 32000 nM.
The same measure, in the same setting: next, `COc1ccccc1OCCNC[C@@H](O)COc1cccc2[nH]c3ccccc3c12` [(R)-Carvedilol]: 26 nM.
For the molecule `CCC(NC(C)C)C(O)c1ccc(O)c2[nH]c(=O)ccc12` (centres undefined) [PROCATEROL], the Ki was 86000 nM at D(2) dopamine receptor [4] and 33 nM in [8]. Also, in the experiment listed under Homo sapiens, the Ratio Ki was 2600.
Turning to `COc1cc(CCNC[C@@H](O)c2ccc(O)c3[nH]c(=O)ccc23)ccc1OCCCc1ccccc1`, the Ki in [1] came out at 1800 nM; on D(2) dopamine receptor [3], 2900 nM; on D(3) dopamine receptor, 790 nM; at D(2) dopamine receptor [4] it was 2300 nM; in experiment [7] it was 300 nM; in experiment [8] it was 23 nM. Moreover, the figures for the Ki at D(4) dopamine receptor and at D(1A) dopamine receptor were 9200 nM and 6800 nM, respectively. The EC50 was 840 nM in [5] and 510 nM in experiment [9].
On to `COc1cc(CCNCCc2ccc(O)c3c2OCC(=O)N3)ccc1OCCCc1ccccc1`, for which the Ki worked out at 120 nM in experiment [1]; 270 nM in experiment [2]; 12 nM at D(2) dopamine receptor [3]; 3.5 nM on D(3) dopamine receptor; 17 nM on D(2) dopamine receptor [4]; 79 nM in experiment [7]. Further, the Ki is 2.8 nM in [8], 55 nM on D(4) dopamine receptor and 960 nM on D(1A) dopamine receptor. For the same molecule, the figures for the EC50 on D(2) dopamine receptor [6] and at D(2) dopamine receptor [10] were 2.6 nM and 1100 nM, respectively.
Consider `COc1ccccc1OCCNCCc1ccc(O)c(O)c1`, for which the Ki in experiment [1] was found to be 4.7 nM; in experiment [2], 390 nM; at D(2) dopamine receptor [3] it was 85 nM; on D(3) dopamine receptor, 25 nM; on D(2) dopamine receptor [4], 48 nM; in [7], 5000 nM. Also, the values for the Ki (in experiment [8]; at D(4) dopamine receptor; at D(1A) dopamine receptor) were 610 nM, 4.5 nM and 210 nM, respectively. The EC50 is 720 nM in [5] and 25 nM on D(2) dopamine receptor [6].
Take `COc1cc(CCNC[C@@H](O)c2ccc(O)c3c2OCC(=O)N3)ccc1OCCCc1ccccc1`: the Ki stood at 1100 nM in experiment [1]; 2200 nM in [2]; 310 nM at D(2) dopamine receptor [3]; 400 nM at D(3) dopamine receptor; 96 nM at D(2) dopamine receptor [4]; 180 nM in [7]. In addition, the Ki came to 13 nM in experiment [8], 5400 nM on D(4) dopamine receptor and 2800 nM on D(1A) dopamine receptor. Besides, the EC50 in experiment [5] worked out at 1000 nM; on D(2) dopamine receptor [6] it was 7.3 nM; on D(2) dopamine receptor [10], 8800 nM; in experiment [9], 580 nM.
As to `COc1cc(CCNCCc2ccc(O)c3[nH]c(=O)ccc23)ccc1OCCCc1ccccc1`, the Ki was 920 nM in experiment [1]; 13000 nM in [2]; 64 nM at D(2) dopamine receptor [3]; 18 nM at D(3) dopamine receptor; 160 nM on D(2) dopamine receptor [4]; 150 nM in [7]. In addition, the Ki amounted to 6.3 nM in experiment [8], 900 nM on D(4) dopamine receptor and 2800 nM on D(1A) dopamine receptor. Also, the figures for the EC50 on D(2) dopamine receptor [6] and at D(2) dopamine receptor [10] were 17 nM and 240 nM, respectively.
`CCCN(CCC)[C@H]1CCc2c(O)cccc2C1` had a Ki in experiment [8] of 40000 nM.
With `COc1cc(CCNCCc2ccc(O)c(O)c2)ccc1OCCCc1ccccc1`, the Ki in experiment [1] came to 400 nM; in experiment [2] it was 810 nM; at D(2) dopamine receptor [3] it was 63 nM; at D(3) dopamine receptor, 12 nM; at D(2) dopamine receptor [4] it was 120 nM; in experiment [7], 2300 nM. Further, the Ki in [8] is 53 nM; at D(4) dopamine receptor, 38 nM; on D(1A) dopamine receptor, 860 nM. Also, the EC50 in [5] was 47000 nM; on D(2) dopamine receptor [6] it was 110 nM; at D(2) dopamine receptor [10], 2600 nM.
For the molecule `COc1cc(CCNC[C@@H](O)c2ccc(O)c(O)c2)ccc1OCCCc1ccccc1`, the Ki in experiment [2] stood at 2500 nM; at D(2) dopamine receptor [3], 1900 nM; at D(3) dopamine receptor, 660 nM; at D(2) dopamine receptor [4] it was 1700 nM; in [7], 530 nM; in [8], 47 nM. Further, the results for the Ki on D(4) dopamine receptor and at D(1A) dopamine receptor were 1000 nM and 2900 nM, respectively. Besides, the values for the EC50 in experiment [5] and in experiment [9] were 2600 nM and 650 nM, respectively.
Regarding `CCCN(CCC)[C@@H]1CCc2ccc(O)cc2C1`, the Ki in experiment [8] stood at 86000 nM.
For `CNC[C@H](O)c1ccc(O)c(O)c1` [EPINEPHRINE], at D(2) dopamine receptor [4], the Ki stood at 910 nM.
Turning to `CC(C)NCC(O)c1ccc(O)c(O)c1` (centres undefined) [ISOPROTERENOL], the Ki in experiment [1] was found to be 78000 nM; in [2] it was 5700 nM; on D(2) dopamine receptor [3], 48000 nM; at D(3) dopamine receptor, 4700 nM; at D(2) dopamine receptor [4], 12000 nM; on D(4) dopamine receptor it was 2900 nM. On D(1A) dopamine receptor, the Ki is above 50000 nM.
In the case of `COc1cc(CCNC[C@H](O)c2ccc(O)c3[nH]c(=O)ccc23)ccc1OCCCc1ccccc1`, the Ki worked out at 1400 nM in [1]; 5700 nM at D(2) dopamine receptor [3]; 1700 nM at D(3) dopamine receptor; 3200 nM on D(2) dopamine receptor [4]; 5.8 nM in experiment [7]; 0.48 nM in experiment [8]. For the same molecule, the Ki on D(4) dopamine receptor was 3300 nM; on D(1A) dopamine receptor, 11000 nM. Also, the EC50 in experiment [5] is 6.2 nM; in experiment [9] it was 22 nM.
Turning to `COc1cc(CCNC[C@H](O)c2ccc(O)c3c2OCC(=O)N3)ccc1OCCCc1ccccc1`, the Ki in [1] was found to be 1900 nM; in experiment [2], 4700 nM; on D(2) dopamine receptor [3], 130 nM; on D(3) dopamine receptor, 690 nM; at D(2) dopamine receptor [4] it was 65 nM; in [7], 5.1 nM. Further, the Ki is 0.25 nM in [8], 1400 nM on D(4) dopamine receptor and 4500 nM on D(1A) dopamine receptor. The EC50 is 7 nM in experiment [5], 98 nM on D(2) dopamine receptor [6], 13000 nM at D(2) dopamine receptor [10] and 13 nM in experiment [9].
In the case of `COc1ccccc1OCCNC[C@H](O)c1ccc(O)c(O)c1`, the Ki in experiment [1] amounted to 50 nM; in experiment [2], 420 nM; on D(2) dopamine receptor [3], 640 nM; on D(3) dopamine receptor, 2200 nM; on D(2) dopamine receptor [4], 430 nM; in experiment [7], 160 nM. Further, the Ki in [8] was found to be 97 nM; on D(4) dopamine receptor, 300 nM; on D(1A) dopamine receptor, 890 nM. In addition, the EC50 in experiment [5] turned out to be 120 nM; on D(2) dopamine receptor [6] it was 170 nM; in [9], 210 nM.
In [8], `CCCN1CCC[C@@H]2Cc3n[nH]cc3C[C@H]21` [QUINPIROLE] showed a Ki of 100000 nM.
On D(2) dopamine receptor [4], `NC[C@H](O)c1ccc(O)c(O)c1` [NOREPINEPHRINE] showed a Ki of 1300 nM.
